Data as given in ChEMBL document CHEMBL1121443, “Role of iodine in thyroid hormones: molecular conformation of a halogen-free hormone analogue” (1980).

Key:
[1] = In vitro percentage thymocyte activity of compound was determined in rat; assay type: functional; parameters: concentration or dose not given beside the values
[2] = biological target: T1, Thyroxine-binding globulin (Homo sapiens) (UniProt P05543); assay: Percentage thyroxine-binding globulin (TBG) binding activity of compound was determined in human serum; assay type: cell-free
T1 sequence (whole entry): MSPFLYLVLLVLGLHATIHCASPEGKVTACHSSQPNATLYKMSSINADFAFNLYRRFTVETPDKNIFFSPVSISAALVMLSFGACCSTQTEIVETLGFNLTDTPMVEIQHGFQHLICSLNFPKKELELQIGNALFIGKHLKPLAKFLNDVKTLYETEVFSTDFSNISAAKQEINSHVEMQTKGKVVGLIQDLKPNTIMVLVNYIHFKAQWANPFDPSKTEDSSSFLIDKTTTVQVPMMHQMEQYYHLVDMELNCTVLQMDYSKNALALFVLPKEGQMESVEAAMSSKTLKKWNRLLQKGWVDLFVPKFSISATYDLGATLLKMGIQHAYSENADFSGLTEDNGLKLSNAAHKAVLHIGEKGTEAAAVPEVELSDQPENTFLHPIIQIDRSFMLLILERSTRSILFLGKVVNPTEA

[3] = In vivo percentage antigoiter activity of compound was determined; assay type: functional, Rattus norvegicus; parameters: concentration or dose not given beside the values
[4] = species: Rattus norvegicus; assay: In vitro binding affinity of compound to the rat Hepatic nuclear protein receptors was determined
[5] = biological target: T1, Thyroxine-binding globulin (Homo sapiens); assay: Percentage thyroxine-binding globulin binding activity of compound was determined in human serum; assay type: cell-free

SMILES: N[C@@H](Cc1cc(I)c(Oc2ccc(O)c(I)c2)c(I)c1)C(=O)O [LIOTHYRONINE]
- Activity [1]: 100%
- Activity [2]: 9%
- Activity [3]: 100%

SMILES: Cc1cc(Oc2c(C)cc(CC(N)C(=O)O)cc2C)ccc1O (centres undefined)
- Activity [4]: 0.1%
- Activity [1]: 23%
- Activity [2]: 0%
- Activity [3]: 0.36%

SMILES: N[C@@H](Cc1cc(I)c(Oc2cc(I)c(O)c(I)c2)c(I)c1)C(=O)O [LEVOTHYROXINE]
- Activity [4]: 12.5%
- Activity [1]: 30%
- Activity [3]: 18%
- Activity [5]: 100%

SMILES: Cc1cc(CC(N)C(=O)O)cc(C)c1Oc1ccc(O)c(C(C)C)c1 (centres undefined)
- Activity [4]: 0.7%
- Activity [1]: 48%
- Activity [2]: 0.05%
- Activity [3]: 3.6%

SMILES: Cc1cc(Oc2c(C)cc(CC(N)C(=O)O)cc2C)cc(C)c1O (centres undefined)
- Activity [4]: 0.1%
- Activity [1]: 23%
- Activity [2]: 0%
- Activity [3]: 0.54%
